Results on six compounds are retold here after PMC6213206, “Cyclopropane-Containing Fatty Acids from the Marine Bacterium Labrenzia sp. 011 with Antimicrobial and GPR84 Activity” (Marine Drugs, 2018).

The structures appear in SMILES notation.

Assay [1] deals with T1, human GPR84 (Homo sapiens, UniProt Q9NQS5).
T1 construct: CHO-hGPR84)
As to the kind of experiment: cAMP accumulation assay in CHO cells expressing human GPR84. In kind it is cell-based. Also on record: Emax: dose or concentration left out as unconfirmed. To be noted: for EC50: read-out: cAMP Assay EC50 ± SD; for activity in cAMP assay (in words): Gi-mediated signaling; for cAMP Assay percent receptor activation: at 100 μM, forskolin 10 μM. The text has this:
(§1) cAMP accumulation assays determined the potency of the test compounds to inhibit forskolin-induced cAMP accumulation in Chinese hamster ovary (CHO) cells, stably expressing human GPR84, whereas the β-arrestin recruitment assays used the enzyme complementation technology.
The recombinant CHO cell line expressing the human GPR84 (CHO-hGPR84) with a β-galactosidase fragment and β-arrestin containing the complementary fragment of the enzyme was purchased from DiscoverX (Fremont, CA, USA). This cell line was used for the β-arrestin recruitment assays as well as for cAMP accumulation assays. The CHO-hGPR84 cells were cultured in F12 medium supplemented with 10% FCS, 100 units/mL penicillin G, 100 μg/mL streptomycin, 800 μg/mL G 418, 300 μg/mL hygromycin B, and 1% ultraglutamin (Invitrogen, Carlsbad, CA or Sigma-Aldrich, St. Louis, MO, USA). Stock solutions of compounds were prepared in DMSO (final DMSO concentration: 1%). Data were analyzed using Graph Pad Prism version 6.0 (San Diego, CA, USA). Concentration-response data were fitted by nonlinear regression to estimate EC50 values.
cAMP assays were performed as previously described. CHO cells overexpressing the human GPR84 were stimulated with forskolin (10 μM) in the absence (control) or presence of test compound for 15 min. The reaction was stopped by the addition of hot (90 °C) lysis solution containing 4 mM EDTA and 0.01% Triton X-100 in water. cAMP levels were quantified by a radioactive assay using [³H]cAMP (Perkin-Elmer, Rodgau, Germany). The forskolin-induced change in cAMP concentration in the presence of the test compound was expressed as a percentage of the response to forskolin in the absence of agonist (% of control). Three independent experiments, each in duplicates were performed.
For orientation: Cyclic AMP is a second messenger, typically raised through Gs and lowered through Gi signalling.

The target in assay [2] is T1, human GPR84. As to the kind of experiment: β-arrestin recruitment assay (β-galactosidase enzyme complementation) in CHO-hGPR84 cells. In kind it is cell-based. To be noted: for EC50: n = 5, read-out: β-Arrestin Assay EC50 ± SD; for Emax: relative to maximal effect of full agonist embelin (10 μM) = 100%, read-out: β-Arrestin Assay Efficacy (Emax).
From the text: as §1
The recombinant CHO cell line expressing the human GPR84 (CHO-hGPR84) with a β-galactosidase fragment and β-arrestin containing the complementary fragment of the enzyme was purchased from DiscoverX (Fremont, CA, USA). This cell line was used for the β-arrestin recruitment assays as well as for cAMP accumulation assays. […] Stock solutions of compounds were prepared in DMSO (final DMSO concentration: 1%). Data were analyzed using Graph Pad Prism version 6.0 (San Diego, CA, USA). Concentration-response data were fitted by nonlinear regression to estimate EC50 values.
β-arrestin assays were performed as previously described. Briefly, CHO cells expressing the human GPR84 with a β-galactosidase fragment and β-arrestin containing the complementary fragment of the enzyme were incubated with a series of compound dilutions (in DMSO, final DMSO concentration: 1%) for 90 min before adding the detection reagent (DiscoverX®, Fremont, CA, USA). After 60 min of incubation at room temperature the luminescence was measured using an NXT plate reader (Perkin-Elmer, Rodgau, Germany). Three to five independent experiments were performed, each in duplicates.
For orientation: Arrestin recruitment assays detect the binding of arrestin to an activated receptor.

For the next assay, the system named is Escherichia coli DSM 498. As to the kind of experiment: disc diffusion assay. In kind it is cell-based. To be noted: DSM498, 50 μg per disc, read-out: growth inhibition zone. (In general: A growth-free zone around the sample is the usual read-out of agar diffusion tests.)
Assay [3] has as its system Eurotium rubrum DSM 62631. As to the kind of experiment: disc diffusion assay. The format is cell-based. Particulars: for zone of inhibition at 50 µg/disc: Aspergillus ruber, DSM62631, 50 μg per disc, read-out: growth inhibition zone. As to the method: (§2) Compounds 1 and 2 were tested against a range of microorganisms, namely the Gram-positive bacterium Bacillus megaterium DSM 32, the Gram-negative bacterium Escherichia coli JM 83 and Pseudoroseovarius crassostreae DSM 16950^T; the fungal organisms utilized were Eurotium rubrum DSM 62631, Microbotryum violaceum MB#110229, and Mycotypha microspora MB#271115. Tests were performed according to Reference. 50 μg of pure compounds or positive controls were taken from a solution of 1 mg/mL and applied on sterile paper discs on agar plates of the corresponding medium for each test organism. Multidrug-resistant pathogens Escherichia coli I-11276b, MRSA LT-1338, MRSA LT-1334 were tested with 4 μg of compound 2 in each disc. Thereafter, suspensions of the organisms were sprayed on the agar and incubated. Miconazole and streptomycin were used as positive controls. Inhibition zones were measured from the edge of the disc to the end of the area free of growth. Only total inhibition (>1 mm) was considered as a positive result.

The test system of assay [4] is Microbotryum violaceum MB#110229. As to the kind of experiment: disc diffusion assay. In kind it is cell-based. Particulars: 50 μg per disc, read-out: growth inhibition zone. The method, then:
as §2

For assay [5], the system named is Mycotypha microspora MB#271115. As to the kind of experiment: disc diffusion assay. The format is cell-based. Particulars: 50 μg per disc, read-out: growth inhibition zone. As to the method:
as §2

Assay [6] deals with Pseudoroseovarius crassostreae DSM 16950T. As to the kind of experiment: disc diffusion assay. The format is cell-based. Particulars: Aliiroseovarius crassostreae, DSM16950T, 50 μg per disc, read-out: growth inhibition zone. The method, then:
as §2

Assay [7] deals with T1, human GPR84. Also on record: method as in PMID 28406627. Particulars: relative to maximal effect of full agonist decanoic acid (100 μM) = 100%; cited from earlier work.
The test system of assay [8] is Bacillus megaterium DSM 32. As to the kind of experiment: disc diffusion assay. The format is cell-based. To be noted: Priestia megaterium, DSM32, 50 μg per disc, read-out: growth inhibition zone. The method, then:
as §2

For assay [9], the system named is Escherichia coli I-11276b. As to the kind of experiment: disc diffusion assay, multidrug-resistant pathogen. In kind it is cell-based. Particulars: I11276B; Escherichia coli I-11276b (multidrug-resistant); 4 μg per disc; read-out: growth inhibition zone. As to the method: as §2
Another assay deals with MRSA LT-1334. As to the kind of experiment: disc diffusion assay, multidrug-resistant pathogen. In kind it is cell-based. To be noted: Staphylococcus aureus; MRSA LT-1334 (multidrug-resistant); 4 μg per disc; read-out: growth inhibition zone. The method, then:
as §2

In a further assay the test system is MRSA LT-1338. As to the kind of experiment: disc diffusion assay, multidrug-resistant pathogen. The format is cell-based. To be noted: Staphylococcus aureus; MRSA LT-1338 (multidrug-resistant); 4 μg per disc; read-out: growth inhibition zone. The method, then: as §2

T1 sequence (Q9NQS5 whole entry): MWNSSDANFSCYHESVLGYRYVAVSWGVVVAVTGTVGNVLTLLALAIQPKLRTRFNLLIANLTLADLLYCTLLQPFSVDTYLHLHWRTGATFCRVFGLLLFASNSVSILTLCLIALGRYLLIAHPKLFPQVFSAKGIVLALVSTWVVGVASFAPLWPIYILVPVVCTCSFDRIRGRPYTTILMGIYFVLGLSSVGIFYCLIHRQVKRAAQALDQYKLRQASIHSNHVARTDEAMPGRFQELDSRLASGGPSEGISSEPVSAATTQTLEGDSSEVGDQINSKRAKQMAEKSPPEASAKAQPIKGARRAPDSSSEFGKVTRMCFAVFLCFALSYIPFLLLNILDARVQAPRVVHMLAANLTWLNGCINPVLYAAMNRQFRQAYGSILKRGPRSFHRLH

As a reminder, the Emax is the maximal effect, on the per cent scale that the assay sets. By EC50 is commonly meant the concentration giving half of the maximal effect. In the case of `CCCCCCCCCCCC(=O)O` [Dodecanoic acid, reference compound], the Emax on human GPR84 [1] (CHO, read-out: cAMP Assay Efficacy (Emax)) amounted to 94%; at human GPR84 [2], 95%. Besides, the EC50 worked out at 8.87 ± 4.46 µM on human GPR84 [1] and 2.84 ± 0.54 µM on human GPR84 [2].
On to `CCCCCC[C@H]1C[C@H]1CCCC(=O)O` (relative stereo) [Compound 1, cis-4-(2-hexylcyclopropyl)-butanoic acid], for which the zone of inhibition at 50 µg/disc came to 2 mm in the assay with Escherichia coli DSM 498, 8 mm in [4], 3 mm in [5] and 5 mm in assay [6]. The growth inhibition zone result in assay [3] (50 μg per disc) is reported as “devoid of activity”. In addition, the “activity in cAMP assay (in words)” value on human GPR84 [1] was “inactive”. Besides, at human GPR84 [1], the “cAMP Assay percent receptor activation” value was found to be 0%. The EC50 is > 100 µM at human GPR84 [1] and > 30 µM on human GPR84 [2]. For the same compound, the “activity in β-arrestin assay (in words)” value on human GPR84 [2] is “inactive”. For the same compound, the “β-Arrestin Assay percent receptor activation” value at human GPR84 [2] (at 30 μM) was 17%.
Consider `CCCCCCCCCC(=O)O` [Decanoic acid], for which the “cAMP Assay Efficacy (Emax)” value on human GPR84 [7] is 100% [26].
In the case of `[H]/N=C(/N)N[C@H]1[C@H](O)[C@@H](O)[C@H](O[C@@H]2O[C@@H](C)[C@](O)(C=O)[C@H]2O[C@@H]2O[C@@H](CO)[C@H](O)[C@@H](O)[C@@H]2NC)[C@@H](N/C(N)=N\[H])[C@@H]1O` [Streptomycin, reference compound], the figures for the zone of inhibition at 50 µg/disc (in the assay with Escherichia coli DSM 498; in [8]; in assay [6]) were 6 mm, 9 mm and 6 mm, respectively.
As to `CCCCCC[C@H]1C[C@H]1CC(=O)O` (relative stereo) [Compound 2, cis-2-(2-hexylcyclopropyl)-acetic acid], the zone of inhibition at 50 µg/disc in the assay on Escherichia coli DSM 498 was 3 mm; in [8], 10 mm; in assay [3], 10 mm; in assay [4] it was 10 mm; in [5] it was 6 mm; in assay [6], 5 mm. The zone of inhibition at 4 µg/disc was found to be 2 mm in assay [9], 3 mm in the assay on MRSA LT-1334 and 2 mm with MRSA LT-1338. At human GPR84 [1], the “activity in cAMP assay (in words)” value is “did neither induce nor block Gi-mediated signaling”. Besides, the “cAMP Assay percent receptor activation” value at human GPR84 [1] was 24%. Further, the figures for the EC50 at human GPR84 [1] and on human GPR84 [2] were > 100 µM and 0.114 ± 0.135 µM, respectively. Besides, the “potency in β-arrestin assay relative to dodecanoic acid” value at human GPR84 [2] (fold more potent than dodecanoic acid (EC50 = 2.84 μM)) is on record as 25 fold. Moreover, the Emax on human GPR84 [2] worked out at 54%.
Turning to `Clc1ccc(COC(Cn2ccnc2)c2ccc(Cl)cc2Cl)c(Cl)c1` (stereo not shown) [Miconazole, reference compound], the values for the zone of inhibition at 50 µg/disc in [3], in assay [4] and in [5] were 8 mm, 6 mm and 9 mm, respectively.
